From patent publication US12077503B2, “Substituted cyclic amides and their use as herbicides” (FMC CORPORATION, priority 2015, dated 2024)

Columns and labels:
Assay type in all cases: in vivo
[1] = test system: ducksalad (Heteranthera limosa); assay: Test B flooded paddy test; settings: Flood, 0 to 100 scale where 0 is no effect and 100 is complete control, 13 to 15 d
How it was run: (§1)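 Visual ratings (0 none to 100 complete control) are relative to untreated plants, taken 13–15 d after treatment in a greenhouse. Test material went straight into floodwater standing 3 cm above the soil, kept constant, on plants at the 2-leaf stage.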

[2] = test system: sedge, umbrella (small-flower umbrella sedge, Cyperus difformis); assay: Test B flooded paddy test; settings: Flood, 0 to 100 scale where 0 is no effect and 100 is complete control, 13 to 15 d
How it was run: as §1

rice (Oryra sativa) = assay: Test B flooded paddy test; settings: Flood, 0 to 100 scale where 0 is no effect and 100 is complete control, 13 to 15 d
How it was run: as §1

[3] = test system: barnyardgrass (Echinochloa crus-galli); assay: Test B flooded paddy test; settings: Flood, 0 to 100 scale where 0 is no effect and 100 is complete control, 13 to 15 d
How it was run: as §1

[4] = test system: ryegrass, Italian (Italian ryegrass, Lolium multiflorum); assay: Test A preemergence; settings: for Ryegrass, Italian plant response rating (0 to 100 scale, 0 is no effect, 100 is complete control): visual injury approx. 10 d
How it was run: (§2)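 Ratings of 0 (no effect) to 100 (complete control) come from visual comparison with untreated controls roughly 10 d after treatment. Test chemicals, formulated in a non-phytotoxic solvent mixture with surfactant, were applied either as a preemergence directed soil spray on seeded soil or postemergence to one- to two-leaf plants 2 to 10 cm tall.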

Kochia (Kochia scoparia) [5] = assay: Test A preemergence; settings: for Kochia plant response rating (0 to 100 scale, 0 is no effect, 100 is complete control): visual injury approx. 10 d
How it was run: as §2

[6] = test system: ragweed (common ragweed, Ambrosia elatior); assay: Test A preemergence; settings: for Ragweed plant response rating (0 to 100 scale, 0 is no effect, 100 is complete control): visual injury approx. 10 d
How it was run: as §2

[7] = test system: giant foxtail (Setaria faberii); assay: Test A preemergence; settings: for Foxtail, Giant plant response rating (0 to 100 scale, 0 is no effect, 100 is complete control): visual injury approx. 10 d
How it was run: as §2

[8] = test system: barnyardgrass (Echinochloa crus-galli); assay: Test A preemergence; settings: for Barnyardgrass plant response rating (0 to 100 scale, 0 is no effect, 100 is complete control): visual injury approx. 10 d
How it was run: as §2

[9] = test system: pigweed (Amaranthus retroflexus); assay: Test A preemergence; settings: for Pigweed plant response rating (0 to 100 scale, 0 is no effect, 100 is complete control): visual injury approx. 10 d
[10] = test system: wheat (Triticum aestivum); assay: Test A postemergence
How it was run: as §2

[11] = test system: ryegrass, Italian (Italian ryegrass, Lolium multiflorum); assay: Test A postemergence
How it was run: as §2

Kochia (Kochia scoparia) [12] = assay: Test A postemergence
How it was run: as §2

corn (Zea mays) = assay: Test A postemergence
How it was run: as §2

[13] = test system: ragweed (common ragweed, Ambrosia elatior); assay: Test A postemergence
How it was run: as §2

[14] = test system: giant foxtail (Setaria faberii); assay: Test A postemergence
How it was run: as §2

[15] = test system: blackgrass (Alopecurus myosuroides); assay: Test A postemergence; settings: for Blackgrass plant response rating: visual injury rating on 0 to 100 scale (0 no effect, 100 complete control)
How it was run: as §2

[16] = test system: barnyardgrass (Echinochloa crus-galli); assay: Test A postemergence; settings: for Barnyardgrass plant response rating: visual injury rating on 0 to 100 scale (0 no effect, 100 complete control)
How it was run: as §2

[17] = test system: Galium (catchweed bedstraw, Galium aparine); assay: Test A postemergence
How it was run: as §2

[18] = test system: pigweed (Amaranthus retroflexus); assay: Test A postemergence
How it was run: as §2

[19] = 125 g ai/ha, Preemergence, visual injury after approximately 10 d, 0 to 100 scale where 0 is no effect and 100 is complete control
[20] = 125 g ai/ha, postemergence, visual injury rating on 0 to 100 scale (0 no effect, 100 complete control), approx. 10 d
[21] = Postemergence, 500 g ai/ha, 0 to 100 scale where 0 is no effect and 100 is complete control
[22] = 125 g ai/ha, postemergence, approx. 10 d
[23] = 125 g ai/ha, postemergence, visual rating after approx. 10 d, 0 to 100 scale (0 no effect, 100 complete control)
[24] = 500 g ai/ha, preemergence, 0 to 100 scale, 0 = no effect, 100 = complete control
[25] = 500 g ai/ha, postemergence, visual injury, 0 to 100 scale (0 no effect, 100 complete control), approx. 10 d

## COCc1cccc(C2CNC(=O)C2C(=O)Nc2ccccc2Cl)c1 (stereo not drawn) [Compound 498]
[1]; 250 g ai/ha
  Plant response rating, Ducksalad: 90
[2]; 250 g ai/ha
  Plant response rating, Sedge, Umbrella: 0
Rice (Oryra sativa); 250 g ai/ha
  Plant response rating, Rice: 0
[3]; 250 g ai/ha
  Plant response rating, Barnyardgrass: 45
[4]; [19]
  Plant response rating, Ryegrass, Italian: 0
[4]; Preemergence, 500 g ai/ha
  Ryegrass, Italian plant response rating (0 to 100 scale, 0 is no effect, 100 is complete control): 0
Kochia (Kochia scoparia) [5]; [19]
  Plant response rating, Kochia: 0
Kochia (Kochia scoparia) [5]; Preemergence, 500 g ai/ha
  Kochia plant response rating (0 to 100 scale, 0 is no effect, 100 is complete control): 0
[6]; [19]
  Plant response rating, Ragweed: 0
[6]; Preemergence, 500 g ai/ha
  Ragweed plant response rating (0 to 100 scale, 0 is no effect, 100 is complete control): 0
[7]; [19]
  Plant response rating, Foxtail, Giant: 40
[7]; Preemergence, 500 g ai/ha
  Foxtail, Giant plant response rating (0 to 100 scale, 0 is no effect, 100 is complete control): 80
[8]; [19]
  Plant response rating, Barnyardgrass: 30
[8]; Preemergence, 500 g ai/ha
  Barnyardgrass plant response rating (0 to 100 scale, 0 is no effect, 100 is complete control): 90
[9]; [19]
  Plant response rating, Pigweed: 0
[9]; Preemergence, 500 g ai/ha
  Pigweed plant response rating (0 to 100 scale, 0 is no effect, 100 is complete control): 0
[10]; [20]
  Wheat plant response rating: 0
[10]; [21]
  Plant response rating, Wheat: 0
[11]; [20]
  Ryegrass, Italian plant response rating: 0
[11]; [21]
  Plant response rating, Ryegrass, Italian: 0
Kochia (Kochia scoparia) [12]; [20]
  Kochia plant response rating: 0
Kochia (Kochia scoparia) [12]; [21]
  Plant response rating, Kochia: 0
Corn (Zea mays); [20]
  Corn plant response rating: 0
Corn (Zea mays); [21]
  Plant response rating, Corn: 0
[13]; [20]
  Ragweed plant response rating: 0
[13]; [21]
  Plant response rating, Ragweed: 0
[14]; [20]
  Foxtail, Giant plant response rating: 20
[14]; [21]
  Plant response rating, Foxtail, Giant: 40
[15]; [22]
  Blackgrass plant response rating: 0
[15]; [21]
  Plant response rating, Blackgrass: 0
[16]; [22]
  Barnyardgrass plant response rating: 30
[16]; [21]
  Plant response rating, Barnyardgrass: 70
[17]; [20]
  Galium plant response rating: 0
[17]; [21]
  Plant response rating, Galium: 0
[18]; [20]
  Pigweed plant response rating: 0
[18]; [21]
  Plant response rating, Pigweed: 0

## O=C1NCC(c2ccc(Oc3ccccc3)cc2)C1C(=O)Nc1ccc(F)c(F)c1F (racemic) [Compound 537]
[1]; 500 g ai/ha
  Plant response rating, Ducksalad: 0
[2]; 500 g ai/ha
  Plant response rating, Sedge, Umbrella: 50
Rice (Oryra sativa); 500 g ai/ha
  Plant response rating, Rice: 20
[3]; 500 g ai/ha
  Plant response rating, Barnyardgrass: 30
[4]; [19]
  Plant response rating, Ryegrass, Italian: 0
[4]; Preemergence, 500 g ai/ha
  Ryegrass, Italian plant response rating (0 to 100 scale, 0 is no effect, 100 is complete control): 0
Kochia (Kochia scoparia) [5]; [19]
  Plant response rating, Kochia: 0
Kochia (Kochia scoparia) [5]; Preemergence, 500 g ai/ha
  Kochia plant response rating (0 to 100 scale, 0 is no effect, 100 is complete control): 0
[6]; [19]
  Plant response rating, Ragweed: 0
[6]; Preemergence, 500 g ai/ha
  Ragweed plant response rating (0 to 100 scale, 0 is no effect, 100 is complete control): 0
[7]; [19]
  Plant response rating, Foxtail, Giant: 0
[7]; Preemergence, 500 g ai/ha
  Foxtail, Giant plant response rating (0 to 100 scale, 0 is no effect, 100 is complete control): 0
[8]; [19]
  Plant response rating, Barnyardgrass: 0
[8]; Preemergence, 500 g ai/ha
  Barnyardgrass plant response rating (0 to 100 scale, 0 is no effect, 100 is complete control): 0
[9]; [19]
  Plant response rating, Pigweed: 0
[9]; Preemergence, 500 g ai/ha
  Pigweed plant response rating (0 to 100 scale, 0 is no effect, 100 is complete control): 0
[10]; [23]
  Plant response rating, Wheat: 0
[10]; [21]
  Plant response rating, Wheat: 0
[11]; [23]
  Plant response rating, Ryegrass, Italian: 0
[11]; [21]
  Plant response rating, Ryegrass, Italian: 0
Kochia (Kochia scoparia) [12]; [23]
  Plant response rating, Kochia: 0
Kochia (Kochia scoparia) [12]; [21]
  Plant response rating, Kochia: 0
Corn (Zea mays); [23]
  Plant response rating, Corn: 0
Corn (Zea mays); [21]
  Plant response rating, Corn: 0
[13]; [23]
  Plant response rating, Ragweed: 0
[13]; [21]
  Plant response rating, Ragweed: 0
[14]; [23]
  Plant response rating, Foxtail, Giant: 0
[14]; [21]
  Plant response rating, Foxtail, Giant: 0
[15]; [22]
  Blackgrass plant response rating: 0
[15]; [21]
  Plant response rating, Blackgrass: 0
[16]; [22]
  Barnyardgrass plant response rating: 0
[16]; [21]
  Plant response rating, Barnyardgrass: 0
[17]; [23]
  Plant response rating, Galium: 0
[17]; [21]
  Plant response rating, Galium: 0
[18]; [23]
  Plant response rating, Pigweed: 0
[18]; [21]
  Plant response rating, Pigweed: 0

## COc1cccc(NC(=O)C2C(=O)NCC2c2cccc(C(F)(F)F)c2)c1F (racemic) [Compound 674]
[1]; 500 g ai/ha
  Plant response rating, Ducksalad: 65
[2]; 500 g ai/ha
  Plant response rating, Sedge, Umbrella: 0
Rice (Oryra sativa); 500 g ai/ha
  Plant response rating, Rice: 20
[3]; 500 g ai/ha
  Plant response rating, Barnyardgrass: 60
[4]; [19]
  Plant response rating, Ryegrass, Italian: 0
[4]; [24]
  Plant response rating, Ryegrass, Italian: 0
Kochia (Kochia scoparia) [5]; [19]
  Plant response rating, Kochia: 0
Kochia (Kochia scoparia) [5]; [24]
  Plant response rating, Kochia: 30
[6]; [19]
  Plant response rating, Ragweed: 0
[6]; [24]
  Plant response rating, Ragweed: 0
[7]; [19]
  Plant response rating, Foxtail, Giant: 70
[7]; [24]
  Plant response rating, Foxtail, Giant: 90
[8]; [19]
  Plant response rating, Barnyardgrass: 60
[8]; [24]
  Plant response rating, Barnyardgrass: 80
[9]; [19]
  Plant response rating, Pigweed: 0
[9]; [24]
  Plant response rating, Pigweed: 0
[10]; [23]
  Plant response rating, Wheat: 0
[10]; [25]
  Plant response rating, Wheat: 0
[11]; [23]
  Plant response rating, Ryegrass, Italian: 0
[11]; [25]
  Plant response rating, Ryegrass, Italian: 0
Kochia (Kochia scoparia) [12]; [23]
  Plant response rating, Kochia: 0
Kochia (Kochia scoparia) [12]; [25]
  Plant response rating, Kochia: 0
Corn (Zea mays); [23]
  Plant response rating, Corn: 0
Corn (Zea mays); [25]
  Plant response rating, Corn: 0
[13]; [23]
  Plant response rating, Ragweed: 0
[13]; [25]
  Plant response rating, Ragweed: 0
[14]; [23]
  Plant response rating, Foxtail, Giant: 30
[14]; [25]
  Plant response rating, Foxtail, Giant: 80
[15]; [23]
  Plant response rating, Blackgrass: 0
[15]; [25]
  Plant response rating, Blackgrass: 0
[16]; [23]
  Plant response rating, Barnyardgrass: 30
[16]; [25]
  Plant response rating, Barnyardgrass: 70
[17]; [23]
  Plant response rating, Galium: 0
[17]; [25]
  Plant response rating, Galium: 0
[18]; [23]
  Plant response rating, Pigweed: 0
[18]; [25]
  Plant response rating, Pigweed: 0
